Experimental data published in US9073915B2, “Substituted pyrimidone derivatives” (SANOFI, priority 2008, dated 2015).
Structures can show the parent of a compound that is named as a salt.

Assays:
GSK3β = GSK3β (Homo sapiens, UniProt P49841); test: Inhibitory activity against GSK3β (33P-ATP phosphorylation of prephosphorylated GS1 peptide, filter assay); type: biochemical; conditions: protocol 3: 7.5 μM GS1 peptide, 10 μM ATP, 50 mM Hepes pH 7.2, one hour at room temperature
Experimental: Four different protocols can be used. […]
The reaction was stopped with 100 microliters of a solution made of 25 g polyphosphoric acid (85% P2O5), 126 ml 85% H3PO4, H2O to 500 ml and then diluted to 1:100 before use. […] Incorporated ^33P radioactivity was determined by liquid scintillation spectrometry. […]

Sequence of GSK3β (P49841 whole entry): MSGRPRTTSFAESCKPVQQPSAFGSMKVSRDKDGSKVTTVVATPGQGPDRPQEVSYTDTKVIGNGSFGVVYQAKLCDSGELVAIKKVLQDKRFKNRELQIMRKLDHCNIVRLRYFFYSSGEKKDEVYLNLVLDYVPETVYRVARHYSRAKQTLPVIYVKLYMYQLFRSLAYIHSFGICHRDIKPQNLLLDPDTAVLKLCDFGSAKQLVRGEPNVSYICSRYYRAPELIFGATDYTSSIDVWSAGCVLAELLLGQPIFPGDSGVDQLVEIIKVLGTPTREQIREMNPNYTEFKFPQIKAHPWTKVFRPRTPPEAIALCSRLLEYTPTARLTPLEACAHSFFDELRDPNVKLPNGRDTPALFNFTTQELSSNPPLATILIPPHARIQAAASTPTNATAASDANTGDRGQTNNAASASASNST

melting point	IC50 (GSK3β)	SMILES
220 to 224 °C		COc1ccccc1CCc1cccn2c(=O)cc(-c3ccncc3)nc12 (as salt: hydrochloride) [compound 7, 9-[2-(2-Methoxy-phenyl)-ethyl]-2-pyridin-4-yl-pyrido[1,2-a]pyrimidin-4-one]
261 to 262 °C		O=c1cc(-c2ccncc2)nc2cc(-c3ccccc3)ccn12 (as salt: salt) [Compound No. 4, 8-Phenyl-2-pyridin-4-yl-pyrido[1,2-a]pyrimidin-4-one]
	490 nM	O=c1cc(-c2ccncc2)nc2cc(-c3ccccc3)ccn12 [Compound No. 4, 8-Phenyl-2-pyridin-4-yl-pyrido[1,2-a]pyrimidin-4-one]
	30 nM	COc1ccccc1CCc1cccn2c(=O)cc(-c3ccncc3)nc12 [compound 7, 9-[2-(2-Methoxy-phenyl)-ethyl]-2-pyridin-4-yl-pyrido[1,2-a]pyrimidin-4-one]
